ChEMBL document CHEMBL5346955, “Discovery of HPG1860, a Structurally Novel Nonbile Acid FXR Agonist Currently in Clinical Development for the Treatment of Nonalcoholic Steatohepatitis” (J Med Chem, 2023)
Converted amounts (≈) assume the structure as drawn. Each block holds one molecule with its values, some of them ahead of it. The source made the active and inactive calls. The calls are words filed in the database; no cut-off is given here.

Key:
Bile acid receptor [1] = biological target: T1, Bile acid receptor (Homo sapiens, UniProt Q96RI1); assay: Agonist activity at GST-tagged human FXR-LBD in presence of luorescein-SRC2-2 coactivator peptide by TR-FRET assay
T1 sequence (Q96RI1 whole entry): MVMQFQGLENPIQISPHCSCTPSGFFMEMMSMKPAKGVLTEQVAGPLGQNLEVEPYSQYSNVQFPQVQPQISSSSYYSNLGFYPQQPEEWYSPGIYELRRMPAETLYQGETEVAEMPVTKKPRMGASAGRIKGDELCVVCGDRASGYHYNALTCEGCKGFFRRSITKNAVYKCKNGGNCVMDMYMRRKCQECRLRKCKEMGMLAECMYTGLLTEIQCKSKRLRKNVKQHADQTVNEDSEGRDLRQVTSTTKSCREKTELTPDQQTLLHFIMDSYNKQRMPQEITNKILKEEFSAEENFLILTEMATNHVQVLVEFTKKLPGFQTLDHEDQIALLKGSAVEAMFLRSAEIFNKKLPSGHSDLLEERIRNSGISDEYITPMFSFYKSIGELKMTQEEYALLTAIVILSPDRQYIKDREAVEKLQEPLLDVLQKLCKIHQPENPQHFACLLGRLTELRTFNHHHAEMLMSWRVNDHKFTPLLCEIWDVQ

Bile acid receptor [2] = biological target: T1, Bile acid receptor; assay: Agonist activity at human GAL4-FXR-LBD expressed in HEK293T cells assessed as transcriptional activity measured after 16 to 20 hrs by luciferase reporter gene assay; format: cell-based
[3] = Solubility of the compound in PBS buffer at pH 7.4; format: physicochemical
[4] = Metabolic stability in human liver microsomes assessed as half life at 1 uM measured upto 120 mins by UPLC/MS/MS analysis; format: ADME, Microsome
[5] = Metabolic stability in rat liver microsomes assessed as half life at 1 uM measured upto 120 mins by UPLC/MS/MS analysis; format: ADME, Microsome
[6] = Metabolic stability in dog liver microsomes assessed as half life at 1 uM measured upto 120 mins by UPLC/MS/MS analysis; format: ADME, Canis lupus familiaris, Microsome
[7] = Metabolic stability in cynomolgus monkey liver microsomes assessed as half life at 1 uM measured upto 120 mins by UPLC/MS/MS analysis; format: ADME, Macaca fascicularis, Microsome
[8] = AUC (0 to t) in Balb/c mouse at 1 mg/kg, iv measured after 5 mins by LC-MS/MS analysis; format: ADME, organism-based; set-up: time 5 min, dose 1 mg/kg, route iv; conditions: in vivo
[9] = Half life in Balb/c mouse at 1 mg/kg, iv measured after 5 mins by LC-MS/MS analysis; format: ADME, organism-based; conditions: in vivo
[10] = Clearance in Balb/c mouse at 1 mg/kg, iv measured after 5 mins by LC-MS/MS analysis; format: ADME, organism-based; conditions: in vivo
[11] = Volume of distribution at steady state in Balb/c mouse at 1 mg/kg, iv measured after 5 mins by LC-MS/MS analysis; format: ADME, organism-based; conditions: in vivo, read-out: Vdss
[12] = Cmax in Balb/c mouse at 5 mg/kg, po measured after 12 hrs by LC-MS/MS analysis; format: ADME, organism-based; set-up: dose 5 mg/kg, time 12 hrs, route po; conditions: in vivo
[13] = Tmax in Balb/c mouse at 5 mg/kg, po measured after 12 hrs by LC-MS/MS analysis; format: ADME, organism-based; conditions: in vivo
[14] = AUC (0 to t) in Balb/c mouse at 5 mg/kg, po measured after 12 hrs by LC-MS/MS analysis; format: ADME, organism-based; set-up: dose 5 mg/kg, time 12 hrs, route po; conditions: in vivo
[15] = Half life in Balb/c mouse at 5 mg/kg, po measured after 12 hrs by LC-MS/MS analysis; format: ADME, organism-based; conditions: in vivo
[16] = Oral bioavailability in Balb/c mouse at 5 mg/kg measured after 12 hrs by LC-MS/MS analysis; format: ADME, organism-based; conditions: in vivo
[17] = AUC (0 to t) in Sprague-Dawley rat at 3 mg/kg, iv measured after 5 mins by LC-MS/MS analysis; format: ADME, organism-based; set-up: time 5 min, dose 3 mg/kg, route iv; conditions: in vivo
[18] = Half life in Sprague-Dawley rat at 3 mg/kg, iv measured after 5 mins by LC-MS/MS analysis; format: ADME, organism-based; conditions: in vivo
[19] = Volume of distribution at steady state in Sprague-Dawley rat at 3 mg/kg, iv measured after 5 mins by LC-MS/MS analysis; format: ADME, organism-based; conditions: in vivo
[20] = Cmax in Sprague-Dawley rat at 9 mg/kg, po measured after 12 hrs by LC-MS/MS analysis; format: ADME, organism-based; set-up: time 12 hrs, dose 9 mg/kg, route po; conditions: in vivo
[21] = Tmax in Sprague-Dawley rat at 9 mg/kg, po measured after 12 hrs by LC-MS/MS analysis; format: ADME, organism-based; conditions: in vivo
[22] = AUC (0 to t) in Sprague-Dawley rat at 9 mg/kg, po measured after 12 hrs by LC-MS/MS analysis; format: ADME, organism-based; set-up: dose 9 mg/kg, time 12 hrs, route po; conditions: in vivo
[23] = Half life in Sprague-Dawley rat at 9 mg/kg, po measured after 12 hrs by LC-MS/MS analysis; format: ADME, organism-based; conditions: in vivo
[24] = Oral bioavailability in Sprague-Dawley rat at 9 mg/kg measured after 12 hrs by LC-MS/MS analysis; format: ADME, organism-based; conditions: in vivo
[25] = AUC (0 to t) in Beagle dog at 1 mg/kg, iv measured after 5 mins by LC-MS/MS analysis; format: ADME, organism-based, Canis lupus familiaris; set-up: dose 1 mg/kg, time 5 min, route iv; conditions: in vivo
[26] = Half life in Beagle dog at 1 mg/kg, iv measured after 5 mins by LC-MS/MS analysis; format: ADME, organism-based, Canis lupus familiaris; conditions: in vivo
[27] = Clearance in Beagle dog at 1 mg/kg, iv measured after 5 mins by LC-MS/MS analysis; format: ADME, organism-based, Canis lupus familiaris; conditions: in vivo
[28] = Volume of distribution at steady state in Beagle dog at 1 mg/kg, iv measured after 5 mins by LC-MS/MS analysis; format: ADME, organism-based, Canis lupus familiaris; conditions: in vivo, read-out: Vdss
[29] = Cmax in Beagle dog at 3 mg/kg, po measured after 12 hrs by LC-MS/MS analysis; format: ADME, organism-based, Canis lupus familiaris; set-up: time 12 hrs, dose 3 mg/kg, route po; conditions: in vivo
[30] = Tmax in Beagle dog at 3 mg/kg, po measured after 12 hrs by LC-MS/MS analysis; format: ADME, organism-based, Canis lupus familiaris; conditions: in vivo
[31] = AUC (0 to t) in Beagle dog at 3 mg/kg, po measured after 12 hrs by LC-MS/MS analysis; format: ADME, organism-based, Canis lupus familiaris; set-up: dose 3 mg/kg, time 12 hrs, route po; conditions: in vivo
[32] = Half life in Beagle dog at 3 mg/kg, po measured after 12 hrs by LC-MS/MS analysis; format: ADME, organism-based, Canis lupus familiaris; conditions: in vivo
[33] = Drug metabolism in dog assessed as taurine/glycine conjugates in plasma at 50 mg/kg, po; format: ADME, organism-based, Canis lupus familiaris; conditions: in vivo
[34] = Induction of SHP gene expression in C57BL/6J mouse liver assessed as fold increase at 3 mg/kg, po measured after 1 hr by RT-qPCR analysis; format: functional
[35] = Induction of BSEP gene expression in C57BL/6J mouse liver assessed as fold increase at 3 mg/kg, po measured after 12 hr by RT-qPCR analysis; format: functional
[36] = Induction of FGF15 gene expression in C57BL/6J mouse ileum assessed as fold increase at 3 mg/kg, po measured after 4 hr by RT-qPCR analysis relative to control; format: functional
[37] = Induction of FGF15 gene expression in C57BL/6J mouse ileum assessed as fold increase at 3 mg/kg, po measured after 1 hr by RT-qPCR analysis relative to control; format: functional
[38] = Induction of SHP gene expression in C57BL/6J mouse ileum assessed as fold increase at 3 mg/kg, po measured after 4 hr by RT-qPCR analysis relative to control; format: functional
[39] = Toxicity in C57BL/6J mouse assessed as change in body weight at 1 to 10 mg/kg, po qd; format: organism-based; conditions: in vivo, dose 1-10 mg/kg
Mus musculus [40] = assay: Anti-nonalcoholic steatohepatitis activity against ccl4-induced C57BL/6J mouse model assessed as decrease in ALT level in liver at 1 to 10 mg/kg, po qd treated for 28 days; format: functional, organism-based; conditions: dose 1-10 mg/kg, time 28.0 day
Mus musculus [41] = assay: Anti-nonalcoholic steatohepatitis activity against ccl4-induced C57BL/6J mouse model assessed as decrease in AST level in liver at 1 to 10 mg/kg, po qd treated for 28 days; format: functional, organism-based; conditions: dose 1-10 mg/kg, time 28.0 day
Mus musculus [42] = assay: Anti-nonalcoholic steatohepatitis activity against ccl4-induced C57BL/6J mouse model assessed as reduction total cholesterol in serum at 1 to 10 mg/kg, po qd treated for 28 days; format: functional, organism-based; conditions: dose 1-10 mg/kg, time 28.0 day
Mus musculus [43] = assay: Anti-nonalcoholic steatohepatitis activity against ccl4-induced C57BL/6J mouse model assessed as improvement in NAFLD activity score at 1 to 10 mg/kg, po qd treated for 28 days; format: functional, organism-based; conditions: dose 1-10 mg/kg, time 28.0 day
Mus musculus [44] = assay: Anti-nonalcoholic steatohepatitis activity against ccl4-induced C57BL/6J mouse model assessed as clearance of liver steatosis at 10 mg/kg, po qd treated for 28 days; format: functional; conditions: time 28 day
Mus musculus [45] = assay: Anti-nonalcoholic steatohepatitis activity against ccl4-induced C57BL/6J mouse model assessed as improvement in liver inflammation at 1 to 10 mg/kg, po qd treated for 28 days; format: functional, organism-based; conditions: dose 1-10 mg/kg, time 28.0 day
Mus musculus [46] = assay: Anti-nonalcoholic steatohepatitis activity against ccl4-induced C57BL/6J mouse model assessed as improvement in fibrosis at 1 to 10 mg/kg, po qd treated for 28 days; format: functional, organism-based; conditions: dose 1-10 mg/kg, time 28.0 day

EC50 (Bile acid receptor [1]): > 5 µM
EC50 (Bile acid receptor [2]): > 5 µM
Compound: COc1cc(C(=O)O)cc2sc(N3CCC(Cc4c(-c5c(Cl)cccc5Cl)noc4C(C)C)C3)nc12 (stereo not drawn)

EC50 (Bile acid receptor [1]): 0.006 µM
EC50 (Bile acid receptor [2]): 0.039 µM
solubility [3]: 129 µM (≈ 72.5 µg/mL)
half-life at 1 µM [4]: 1.47 h
half-life at 1 µM [5]: 1.54 h
half-life at 1 µM [6]: 6.67 h
half-life at 1 µM [7]: 1.94 h
Compound: C[C@@H]1CN(Cc2c(-c3c(Cl)cccc3Cl)noc2C2CC2)CCN1c1nc2c(F)cc(C(=O)O)cc2s1

EC50 (Bile acid receptor [1]): 0.008 µM
EC50 (Bile acid receptor [2]): 0.041 µM
Compound: COc1cc(C(=O)O)cc2sc(N3CCN(Cc4c(-c5c(Cl)cccc5Cl)noc4C4CC4)CC3C)nc12 (stereo not drawn)

EC50 (Bile acid receptor [2]): > 5 µM
Compound: CC(C)c1onc(-c2c(Cl)cccc2Cl)c1CN1CCN(c2nc3cccc(C(=O)O)c3s2)CC1

EC50 (Bile acid receptor [1]): 0.005 µM
EC50 (Bile acid receptor [2]): 0.018 µM
solubility [3]: 284 µM (≈ 163 µg/mL)
half-life at 1 µM [4]: 7.45 h
half-life at 1 µM [5]: 1.93 h
half-life at 1 µM [6]: 3.95 h
half-life at 1 µM [7]: 2.57 h
AUC(0-t) at 5 min [8]: 1010 ng·h/mL
half-life [9]: 1.6 h
clearance [10]: 16.5 mL/min/kg
Vd [11]: 0.53 L/kg
Cmax [12]: 3610 ng/mL
Tmax [13]: 0.25 h
AUC(0-t) at 12 h [14]: 3880 ng·h/mL
half-life [15]: 1.52 h
bioavailability [16]: 77.2%
AUC(0-t) at 5 min [17]: 2610 ng·h/mL
t1/2 [18]: 1.44 h
Vdss [19]: 29.3 L/kg
Cmax [20]: 1950 ng/mL
Tmax [21]: 0.5 h
AUC(0-t) at 12 h [22]: 4120 ng·h/mL
half-life [23]: 2.1 h
bioavailability [24]: 52.1%
AUC(0-t) at 5 min [25]: 4590 ng·h/mL
half-life [26]: 4.07 h
clearance [27]: 3.63 mL/min/kg
Vd [28]: 0.823 L/kg
Cmax [29]: 1710 ng/mL
Tmax [30]: 1 h
AUC(0-t) at 12 h [31]: 8270 ng·h/mL
half-life [32]: 9.9 h
Drug metabolism [33]: Metabolite_Notdetected
Compound: COc1cc(C(=O)O)cc2sc(N3CCN(Cc4c(-c5c(Cl)cccc5Cl)noc4C4CC4)C[C@H]3C)nc12
fold change (FC) [34]: 12
fold change (FC) [35]: 4
fold change (FC) [36]: 5
fold change (FC) [37]: 7
fold change (FC) [38]: ~30
Activity [39]: Non-Toxic
Activity (Mus musculus [40]): Active
Activity (Mus musculus [41]): Active
Activity (Mus musculus [42]): Active
Activity (Mus musculus [43]): Active
Activity (Mus musculus [44]): 100%
Activity (Mus musculus [45]): Active
Activity (Mus musculus [46]): Active

EC50 (Bile acid receptor [1]): 0.067 µM
EC50 (Bile acid receptor [2]): > 5 µM
Compound: CC(C)c1onc(-c2c(Cl)cccc2Cl)c1CN1CCN(c2cc3cc(C(=O)O)ccc3n2C)CC1

EC50 (Bile acid receptor [1]): 0.028 µM
EC50 (Bile acid receptor [2]): 0.194 µM
Compound: COc1cc(C(=O)O)cc2sc(N3CCC(Cc4c(-c5c(Cl)cccc5Cl)noc4C(C)C)CC3)nc12

EC50 (Bile acid receptor [2]): 0.256 µM
Compound: CC(C)c1onc(-c2c(Cl)cccc2Cl)c1CN1CCN(c2nc3ccc(C(=O)O)cc3s2)CC1
